No end group written: not given here.
How the values were obtained:
16HBE cells [1] = experiment: WST-1 cell viability assay in 16HBE cells; type: cell-based, human; conditions: 50 μM, highest concentration tested
Method: (§1) For cytotoxicity measurements, cells were plated at a density of 75,000 cells/well in a 96-well plate and grown to confluence (2 days). Cells were then exposed to vehicle or TJDP and viability was measured at 24, 48 and 96 hours. WST-1 reagent (ROCHE) was diluted 20-fold into each well, and cells were incubated at 37° C. Duplicate readings were taken at 0.5 and 1 hour after addition using a THERMO MULTISKAN EX plate reader (A450—background A620). Media only wells were subtracted and values were normalized to media treated controls.

[2] = system: primary human foreskin keratinocytes (PHFK); experiment: WST-1 cell viability assay in PHFK; type: cell-based
Method: as §1

16HBE cells [3] = experiment: TER measurement of tight junction disruption in 16HBE cells; type: cell-based, human; conditions: 12 and 96 μM, over 24 hours
Method: PHFK were isolated from discarded foreskin tissue. Isolation and propagation procedures for both PHFK and 16HBE cells were done as previously described (Poumay, Roland, Leclercq-Smekens, & Leloup, 1994; Saatian et al., 2013).
10 mgs of synthesized TJDP (RS SYNTHESIS) was dissolved in 100 μl of DMSO (SIGMA). Dissolved peptide was then diluted in pre-warmed (55 ° C.) DMSO/PLURONIC F127® (SPECTRUM) solution formulated in PBS (0.6% / 0.12%, respectively). This solution was heated at 55° C. for 30 minutes then homogenized into detergent using a water bath sonicator (BRANSON 2200) for 10 minutes and vortexed for 1 minute. Peptide was stored at 4° C. until use.
TER and paracellular flux were done as previously published (De Benedetto, Rafaels, et al., 2011). […] 2 μM of fluorescently-labeled antibody (palivizumab) was added to cells after 24 hours of exposure to TJDP and paracellular flux was measured 30 minutes and 18 hours later.
Initial experiments employed the human bronchial epithelial cell line, 16HBE since this cell line is known for its robust TJ formation (Saatian et al., 2013). […] The honeycomb fluorescence pattern of these proteins on the cell surface is a hallmark of a barrier competent TJ (Furuse, Fujita, Hiiragi, Fujimoto, & Tsukita, 1998; Furuse et al., 1993). […] The antibody diffusion was measured at 30 min to reduce the likelihood that active transcellular transport was measured.

Substance	viability (WST-1) (16HBE cells [1])	toxicity (WST-1) ([2]; 30 μM, p<0.05)	cell death (WST-1) ([2]; lower concentrations with robust inhibition of TJ formation)	effect on TER values (control peptide) (16HBE cells [3])
SSVSQSTGQIQSKVFDSLLNLSSTLQATR [Peptide 1]	no loss of viability	–	–	–
SILTGVSTLDQSLKQLSNFSQAVSTQSSR [Peptide 2]	no loss of viability	Modest toxicity	no appreciable cell death	–
(FKFE)2	–	–	–	did not affect TER values

— US20220249364A1, “Designed Inhibitors of Tight Junction Formation” (University of Rochester, priority 2019, published 2022)
